US12636283B2, “Inhibition of PRC2 subunits to treat eye disorders” (FONDATION ASILE DES AVEUGLES, priority 2018, dated 2026)
Entries after “also recorded” stand apart in the source; their conditions may differ.

Legend:
Fam161a-/- mice = assay: Repeated weekly intravitreal injection of UNC1999 in Fam161a-/- mice, photoreceptor rows and H3K27me3; type: in vivo, mouse; conditions: 2-month-old Fam161a-/- mice
Description: (§1) The compound was delivered by intravitreal injection into the eyeball of PN08 Rd1 littermates. The animals (08 in total) were first anesthetized intraperitoneally (ip) with a mixture of 20 mg/kg Ketamine+300 μg/Kg of Dorbene. After 30 min, the recovery was performed by an ip injection of 300 μg/kg of Alzane. When necessary, the future edge of the eyelid was forced to open and maintained with forceps. The injection needle filled with 20 μM UNC1999 solution was inserted carefully into the vitreous through the sclera. A single dose (1 μl) of the intermediate solution was delivered slowly, leading to a final concentration of 2.5-3 μM, with a corresponding DMSO concentration of 0.0317%. For each animal, one eye received the compound whereas the other eye was injected with the vehicle. The injected animals were kept warmed and benefited from closest inspection until they wake up from anesthesia. 400 μl of 5% glucose and paracetamol were administered subcutaneously and intraperitoneally respectively to help for recovery before transferred back to their normal habits. The mice were sacrificed 4 days post injection and the eyeball excised as described below. Before processing, the eyes were carefully inspected for any sign of cataracts and unexpected lesions. Similarly, a single dose of UNC1999 (solution of 36 μM) was administered by intravitreal injection to 2 months old Fam161a^−/− mice (slow degenerative process), with repeated injection every week. The animal was sacrificed 4 days after the fourth injection.
The animals were sacrificed by a 7 min exposure to CO2. […] All quantifications were performed on the most central cryosections including (or surrounding) the optic nerve. Measurements of rows of nuclei were taken at the same geographic area for both dorsal and ventral sides of the retina in all sections and slides analyzed. […]
Immunohistochemistry was performed on treated and non-treated slides. […] Interacting probes were then detected by applying a solution of appropriate conjugated secondary antibodies Alexa Fluor 488 or Alexa fluor 633 diluted in PBS 1× 1 h at RT. […]

EZH2 = target: T1, EZH2 (Mus musculus, UniProt Q61188); assay: UNC1999 treatment of mouse embryonic fibroblasts, H3K27me3 immunostaining and western blot; type: cell-based
T1 construct: endogenous in cells; host or cells: Mouse Embryonic Fibroblasts (MEF)
Description: Mouse Embryonic Fibroblasts (MEF) were maintained in culture in Dulbecco's Modified Eagle's Media (DMEM), 10% fetal bovine serum (FBS) with penicillin and streptomycin, at 37° C., 5% CO2. The day before treatment, the cells were trypsinized and seeded at a density of 50,000 cells on poly-ornithine coated coverslips in 24 well plates. The next day, the media was discarded and fresh media containing various doses of the UNC1999 inhibitor dissolved in dimethyl sulfoxide (DMSO), ranging from 1 μM to 50 μM was added in triplicates, then incubated back at 37° C. for 48H. Control cells received the respective dimethyl sulfoxide DMSO used with the UNC1999. The coverslips were washed 3 times with pre-warmed phosphate buffer saline (PBS) 1× at room temperature (RT). The cells were fixed with 4% paraformaldehyde (PFA) for 12 min at RT. After two more washes in PBS, the cells were immediately proceeded for immunostaining. For western blot analysis, 200,000 cells were seeded in triplicates in 6 wells plates and treated as above.
Immunohistochemistry was performed on treated and non-treated slides. The sections were washed 3 times with cooled PBS 1× before being permeabilized with Triton X-100 for 20 min to further allow optimal antibodies-antigens interactions everywhere in the tissue and cells. The sections were blocked for 1 h with buffer containing 3% BSA (w/v), 5% NGS (v/v) in PBS 1× containing 0.3% Triton X-100. Appropriate antibodies dilutions (see list of antibodies with their respective applications in Table 2) were prepared in blocking solution and sufficient amount were laid and transferred to 4° C. over-night. The next day, the antibodies solutions were shed-off and the remaining non-interacting probes were washed off 3 times with PBS 1×. Interacting probes were then detected by applying a solution of appropriate conjugated secondary antibodies Alexa Fluor 488 or Alexa fluor 633 diluted in PBS 1× 1 h at RT. Finally, the nuclei were counterstained with 4′,6-diamidino-2-phenylindole (DAPI) solution prepared in PBS. Alternatively, for difficult to retrieve antigens such as cGMP and CDK4, special conditions were applied: Successful detection of CDK4 requires signal amplification, either with TSA* fluorescein detection kit (PerkinElmer) or 3,3′-diaminobenzidine (DAB) revelation system (Dako) according to providers instructions. The cGMP detection was achieved by permeabilizing the membrane with soft detergent solution (0.1% Triton X-100) and using Tris buffer (TBS) throughout the incubation steps. All the preparations were mounted with Mowiol and measurements were taken using an Olympus BX60 fluorescence microscope or Zeiss confocal microscopy (LSM 510 3.2 software). […]

C57/B16 healthy mice = assay: ERG recording of retina function in healthy mice before and one week after intravitreal injection; type: in vivo, mouse
Description: To test whether the UNC1999 dose tested ([…]) has a toxic effect on retina function, the retina activity of control (injected with the vehicle, DMSO) and UNC1999 treated C57/B16 healthy mice was recorded by ERG before and one week after intravitreal injection (FIG. 12). In scotopic condition, the b-wave maximum amplitude baseline of the DMSO treated group was a bit higher than the UNC1999 group one before the injection.

Rd1 mice = assay: Intravitreal injection of UNC1999 in PN8 Rd1 mice, H3K27me3 and TUNEL staining of the ONL; type: in vivo, mouse
Description: The UNC1999 inhibitor was supplied as lyophilized powder from commercial source (#SML0778-5MG, SIGMA). The stock solution was prepared in 100% DMSO according to the manufacturer's instructions. Sufficient amount of DMSO was added to the vial to generate a 10 mM stock solution. For optimal injection procedure, we reviewed three different parameters prior to intermediate solution preparation. Firstly, considering the volume of the vitreous of young mice (post-natal day 8, PN08) which is approximately 5.3 μl; the maximum safe amount (1 μl) that could be injected (final volume 6.3 μl) and the calculated effective dose of […] obtained from increasing doses along with cell culture experiments (see below). Therefore, the stock solution was then diluted in physiological buffer (0.9% NaCl) in order to make a 20 μM intermediate solution for subsequent experiments.
as §1
The animals were sacrificed by a 7 min exposure to CO2. The Histology was performed on enucleated eyes. Prior to cryosectioning, the eye globes were excised from the optic nerve and were perforated at the cornea level (a single tiny hole) with 25 G needle and transfer to 4% PFA (w/v) at RT. After 1 h incubation period, the eyes were washed in PBS 1× before being transferred in 30% sucrose over night at 4° C. The eyes were embedded in yazula and frozen at −20° C. and then 14 μm sections were performed with cryostat. The sections were collected on six serial slides for each eye. All quantifications were performed on the most central cryosections including (or surrounding) the optic nerve. Measurements of rows of nuclei were taken at the same geographic area for both dorsal and ventral sides of the retina in all sections and slides analyzed. The data were pooled as a mean for the dorsal or ventral zone of the retina
The frozen slides were warmed at RT, rehydrated and washed 3 times with PBS 1×. […]

[1] = intravitreal, weekly, four injections, solution of 36 μM
[2] = mouse embryonic fibroblasts, FIG. 7B
[3] = Rd1 PN8, intravitreal, 2.5 μM final eye concentration, 4 days post injection, vs DMSO treated eye
[4] = Rd1 eyes injected at PN8, 2.5 μM final eye concentration, vs vehicle (DMSO)

T1 sequence (Q61188 whole entry): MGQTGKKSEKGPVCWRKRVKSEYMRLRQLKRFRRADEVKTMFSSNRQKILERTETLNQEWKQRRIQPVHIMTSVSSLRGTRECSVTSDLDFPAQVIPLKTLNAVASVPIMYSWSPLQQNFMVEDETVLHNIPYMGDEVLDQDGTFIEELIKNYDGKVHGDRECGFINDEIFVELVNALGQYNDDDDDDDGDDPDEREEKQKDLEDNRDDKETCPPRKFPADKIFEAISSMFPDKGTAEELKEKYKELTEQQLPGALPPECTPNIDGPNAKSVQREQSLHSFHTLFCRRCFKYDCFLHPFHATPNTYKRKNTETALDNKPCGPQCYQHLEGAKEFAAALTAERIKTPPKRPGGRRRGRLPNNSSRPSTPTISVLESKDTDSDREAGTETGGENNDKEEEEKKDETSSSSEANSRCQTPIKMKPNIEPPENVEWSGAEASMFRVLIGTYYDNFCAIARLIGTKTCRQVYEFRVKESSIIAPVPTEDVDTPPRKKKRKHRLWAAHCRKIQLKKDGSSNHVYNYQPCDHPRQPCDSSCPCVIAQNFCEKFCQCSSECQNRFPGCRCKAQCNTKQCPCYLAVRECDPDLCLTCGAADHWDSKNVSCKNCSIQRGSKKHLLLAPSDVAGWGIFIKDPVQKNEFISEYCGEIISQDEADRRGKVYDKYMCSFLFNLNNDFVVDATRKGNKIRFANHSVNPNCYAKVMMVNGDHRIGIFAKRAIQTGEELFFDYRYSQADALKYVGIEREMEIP
T1 sequence (Q921E6 whole entry partner): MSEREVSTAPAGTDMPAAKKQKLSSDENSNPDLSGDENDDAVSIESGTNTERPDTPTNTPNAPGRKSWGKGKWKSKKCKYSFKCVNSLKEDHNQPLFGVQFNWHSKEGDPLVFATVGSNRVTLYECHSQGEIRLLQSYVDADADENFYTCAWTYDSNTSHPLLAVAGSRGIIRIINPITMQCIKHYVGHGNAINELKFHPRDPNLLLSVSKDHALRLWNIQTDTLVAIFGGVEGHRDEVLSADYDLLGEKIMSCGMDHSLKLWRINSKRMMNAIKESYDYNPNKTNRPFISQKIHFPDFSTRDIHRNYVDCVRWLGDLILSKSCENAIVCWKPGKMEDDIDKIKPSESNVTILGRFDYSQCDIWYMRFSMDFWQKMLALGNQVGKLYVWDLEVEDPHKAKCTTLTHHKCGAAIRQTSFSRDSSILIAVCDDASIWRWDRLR
T1 sequence (Q80U70 whole entry partner): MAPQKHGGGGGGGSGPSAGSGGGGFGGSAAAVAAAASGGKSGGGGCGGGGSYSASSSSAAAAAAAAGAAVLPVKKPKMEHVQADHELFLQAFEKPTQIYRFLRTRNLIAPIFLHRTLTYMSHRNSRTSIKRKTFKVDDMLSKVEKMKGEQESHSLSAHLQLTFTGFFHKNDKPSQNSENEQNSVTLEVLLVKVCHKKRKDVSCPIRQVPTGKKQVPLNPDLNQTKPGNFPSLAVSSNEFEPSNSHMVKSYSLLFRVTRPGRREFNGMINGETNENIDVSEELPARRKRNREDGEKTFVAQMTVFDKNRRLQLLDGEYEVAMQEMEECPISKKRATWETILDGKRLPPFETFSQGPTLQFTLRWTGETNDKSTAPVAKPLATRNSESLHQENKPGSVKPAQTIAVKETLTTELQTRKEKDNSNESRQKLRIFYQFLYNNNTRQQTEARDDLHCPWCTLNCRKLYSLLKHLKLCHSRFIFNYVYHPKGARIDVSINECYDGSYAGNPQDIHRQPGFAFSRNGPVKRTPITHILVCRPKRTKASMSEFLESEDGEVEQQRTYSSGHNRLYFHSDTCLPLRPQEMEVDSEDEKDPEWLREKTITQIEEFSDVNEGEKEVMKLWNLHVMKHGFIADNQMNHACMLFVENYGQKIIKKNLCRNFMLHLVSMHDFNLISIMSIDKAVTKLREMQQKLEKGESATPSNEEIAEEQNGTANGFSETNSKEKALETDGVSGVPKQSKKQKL
T1 sequence (Q60972 whole entry partner): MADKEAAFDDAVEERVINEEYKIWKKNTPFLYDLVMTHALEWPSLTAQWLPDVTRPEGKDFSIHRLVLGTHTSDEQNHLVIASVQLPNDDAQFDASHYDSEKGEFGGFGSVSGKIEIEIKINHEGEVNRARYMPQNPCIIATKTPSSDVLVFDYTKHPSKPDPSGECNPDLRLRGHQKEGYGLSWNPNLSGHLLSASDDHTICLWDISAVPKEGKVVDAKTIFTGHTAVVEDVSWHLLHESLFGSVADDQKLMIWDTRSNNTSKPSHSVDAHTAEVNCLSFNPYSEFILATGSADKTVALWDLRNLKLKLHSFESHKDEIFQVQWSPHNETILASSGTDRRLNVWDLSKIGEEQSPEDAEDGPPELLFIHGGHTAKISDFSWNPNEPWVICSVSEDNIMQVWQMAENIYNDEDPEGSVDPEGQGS

H3K27me3 mark by immunocytochemistry labelling (EZH2; [2]): robust decreased of the mark | levels of EZH2 (EZH2; [2]): slightly affected | calculated effective dose (EZH2; obtained from increasing doses along with cell culture experiments): 6 µM | ERG photopic response vs baseline (C57/B16 healthy mice; 3 cda/s.m^2 stimulation, one week after injection, both DMSO and UNC1999 treated animals): reduced response | ERG flicker response vs baseline (C57/B16 healthy mice; 5 Hz, both treated groups (DMSO and UNC1999)): a reduction of the response occurred | ERG flicker response (C57/B16 healthy mice; 15 Hz, all groups): no differences were observed
Compound: CCCc1cc(C)[nH]c(=O)c1CNC(=O)c1cc(-c2ccc(N3CCN(C(C)C)CC3)nc2)cc2c1cnn2C(C)C [UNC1999]
levels of H3K27me3 hyper trimethylation, injected vs non-injected side (Fam161a-/- mice; dorso-ventral axis, 4 days after the last injection): did not observe any statistical differences; also recorded: no changes were observed | number of photoreceptor rows in the dorsal compartment (Fam161a-/- mice; [1]): No significant difference | number of photoreceptor rows in the ventral ONL (Fam161a-/- mice; [1]): statistical significant preservation | block of endogenous levels of H3K27me3 (EZH2; proliferating mouse embryonic fibroblasts, 2.5 μM, compared to DMSO control): efficient to block the endogenous levels of H3K27me3 | ERG photopic flicker response, treated vs control group (C57/B16 healthy mice; 5, 10 and 15 Hz, one week after intravitreal injection): No differences between the control and the treated groups were observed | ERG photopic maximum b-wave amplitude, treated vs vehicle group (C57/B16 healthy mice; healthy adult mice, one week after intravitreal injection): No differences between the two groups were noticed | ERG scotopic maximum b-wave amplitude (C57/B16 healthy mice; healthy adult mice, one week after intravitreal injection, vs DMSO group and baseline): no significant differences with the baseline; also recorded: No differences in retina activity | decline of hyper H3K27me3 signal in the ONL (Rd1 mice; [3]): 75% | decrease of number of TUNEL positive cells (Rd1 mice; [3]): 70% | H3K27me3 positive cells (in words) (Rd1 mice; [4]): marked reduction | TUNEL positive cells (in words) (Rd1 mice; [4]): marked reduction | retinal degeneration (Rd1 mice; Rd1 mouse): markedly delayed retinal degeneration
